Assay results as given in patent US11980188B2, “Spiro cyclohexanedione derivates as herbicides” (SYNGENTA PARTICIPATIONS AG, priority 2018, dated 2024).

Columns and labels:
Assay in all cases: Glasshouse herbicide test, pre- and post-emergence, percentage damage
Type in all cases: in vivo
[1] = system: Lolium perenne (LOLPE); conditions: 250 g/h, evaluated after 13 days, percentage damage on five point scale; for LOLPE POST: post-emergence; for LOLPE PRE: pre-emergence
Method: (§1) Seeds of a variety of test species are sown in standard soil in pots (Lolium perenne (LOLPE), Setaria faberi (SETFA), Alopecurus myosuroides (ALOMY), Echinochloa crus-galli (ECHCG), Avena fatua (AVEFA)). After cultivation for one day (pre-emergence) or after 8 days cultivation (post-emergence) under controlled conditions in a glasshouse (at 24/16° C., day/night; 14 hours light; 65% humidity), the plants are sprayed with an aqueous spray solution derived from the formulation of the technical active ingredient in acetone/water (50:50) solution containing 0.5% Tween 20 (polyoxyethelyene sorbitan monolaurate, CAS RN 9005-64-5). Compounds are applied at […]. The test plants are then grown in a glasshouse under controlled conditions in a glasshouse (at 24/16° C., day/night; 14 hours light; 65% humidity) and watered twice daily. After 13 days for pre and post-emergence, the test is evaluated for the percentage damage caused to the plant. The biological activities are shown in the following table on a five point scale (5=80-100%; 4=60-79%; 3=40-59%; 2=20-39%; 1=0-19%).

[2] = system: Echinochloa crus-galli (ECHCG); conditions: 250 g/h, evaluated after 13 days, percentage damage on five point scale; for ECHCG POST: post-emergence; for ECHCG PRE: pre-emergence
Method: as §1

[3] = system: Alopecurus myosuroides (ALOMY); conditions: 250 g/h, evaluated after 13 days, percentage damage on five point scale; for ALOMY PRE: pre-emergence; for ALOMY POST: post-emergence
Method: as §1

[4] = system: Setaria faberi (SETFA); conditions: 250 g/h, evaluated after 13 days, percentage damage on five point scale; for SETFA POST: post-emergence; for SETFA PRE: pre-emergence
Method: as §1

[5] = system: Avena fatua (AVEFA); conditions: 250 g/h, evaluated after 13 days, percentage damage on five point scale; for AVEFA POST: post-emergence; for AVEFA PRE: pre-emergence
Method: as §1

SMILES | LOLPE POST [1] | LOLPE PRE [1] | ECHCG POST [2] | ECHCG PRE [2] | ALOMY PRE [3] | SETFA POST [4] | SETFA PRE [4] | AVEFA POST [5] | AVEFA PRE [5] | ALOMY POST [3]
Cc1cc(-c2ccc(F)cc2)cc(C)c1C1C(=O)CC2(CCN(C(=O)c3ccccn3)CC2)CC1=O [Compound A55] | 5 (5=80-100%) | 5 (5=80-100%) | 5 (5=80-100%) | 5 (5=80-100%) | 5 (5=80-100%) | 5 (5=80-100%) | 5 (5=80-100%) | 5 (5=80-100%) | 5 (5=80-100%) | –
COCC(=O)N1CCC2(CC1)CC(=O)C(c1c(C)cc(-c3ccc(F)cc3)cc1OC)C(=O)C2 [Compound A67] | 5 (5=80-100%) | 5 (5=80-100%) | 5 (5=80-100%) | 5 (5=80-100%) | – | 5 (5=80-100%) | 5 (5=80-100%) | 5 (5=80-100%) | 5 (5=80-100%) | –
Cc1cc(-c2ccc(F)cc2)cc(C)c1C1C(=O)CC2(CCN(C(=O)NC(=O)C(C)(C)C)CC2)CC1=O [Compound A58] | 5 (5=80-100%) | 5 (5=80-100%) | 5 (5=80-100%) | 5 (5=80-100%) | 5 (5=80-100%) | 5 (5=80-100%) | 5 (5=80-100%) | 5 (5=80-100%) | 4 (4=60-79%) | –
Cc1cc(-c2ccc(C#N)cn2)cc(C)c1C1C(=O)CC2(CCN(C(=O)NC(=O)C(C)(C)C)CC2)CC1=O [Compound A27] | 5 (5=80-100%) | 4 (4=60-79%) | – | 5 (5=80-100%) | 4 (4=60-79%) | 5 (5=80-100%) | 5 (5=80-100%) | 1 (1=0-19%) | 2 (2=20-39%) | 5 (5=80-100%)
CCS(=O)(=O)N1CCC2(CC1)CC(=O)C(c1c(C)cc(-c3ccc(C#N)cn3)cc1C)C(=O)C2 [Compound A22] | 5 (5=80-100%) | 5 (5=80-100%) | – | 5 (5=80-100%) | 5 (5=80-100%) | 5 (5=80-100%) | 5 (5=80-100%) | 5 (5=80-100%) | 5 (5=80-100%) | 5 (5=80-100%)
COc1cc(-c2ccc(F)cc2)cc(C)c1C1C(=O)CC2(CCN(C(=O)NC(=O)C(C)(C)C)CC2)CC1=O [Compound A69] | 5 (5=80-100%) | 4 (4=60-79%) | 5 (5=80-100%) | 5 (5=80-100%) | – | 5 (5=80-100%) | 5 (5=80-100%) | 5 (5=80-100%) | 2 (2=20-39%) | –
COc1cc(-c2ccc(F)cc2)cc(C)c1C1C(=O)CC2(CCN(C(=O)C(C)O)CC2)CC1=O (centres unmarked) [Compound A75] | 5 (5=80-100%) | 5 (5=80-100%) | 5 (5=80-100%) | 5 (5=80-100%) | 5 (5=80-100%) | 5 (5=80-100%) | 5 (5=80-100%) | 5 (5=80-100%) | 5 (5=80-100%) | 5 (5=80-100%)
Cc1cc(-c2ccc(C#N)cn2)cc(C)c1C1C(=O)CC2(CCN(C(=O)NC(C)(C)C)CC2)CC1=O [Compound A26] | 5 (5=80-100%) | 5 (5=80-100%) | – | 5 (5=80-100%) | 5 (5=80-100%) | 5 (5=80-100%) | 5 (5=80-100%) | 2 (2=20-39%) | 4 (4=60-79%) | 5 (5=80-100%)
CC(=O)N1CCC2(CC1)CC(=O)C(c1c(C)cc(-c3ncc(Cl)cc3F)cc1C)C(=O)C2 [Compound A50] | 5 (5=80-100%) | 5 (5=80-100%) | 5 (5=80-100%) | 5 (5=80-100%) | 5 (5=80-100%) | 5 (5=80-100%) | 5 (5=80-100%) | 5 (5=80-100%) | 5 (5=80-100%) | 5 (5=80-100%)
COc1cc(-c2ccc(F)cc2)cc(C)c1C1C(=O)CC2(CCN(C(=O)NC(C)(C)C)CC2)CC1=O [Compound A68] | 5 (5=80-100%) | 4 (4=60-79%) | 5 (5=80-100%) | 5 (5=80-100%) | – | 5 (5=80-100%) | 5 (5=80-100%) | 5 (5=80-100%) | 4 (4=60-79%) | –
COc1cc(-c2ccc(F)cc2)cc(C)c1C1C(=O)CC2(CCN(C(=O)C3CC3)CC2)CC1=O [Compound A70] | 5 (5=80-100%) | 5 (5=80-100%) | 5 (5=80-100%) | 5 (5=80-100%) | – | 5 (5=80-100%) | 5 (5=80-100%) | 5 (5=80-100%) | 5 (5=80-100%) | –
COc1cc(-c2ccc(F)cc2)cc(C)c1C1C(=O)CC2(CCN(C(=O)CC#N)CC2)CC1=O [Compound A74] | 5 (5=80-100%) | 5 (5=80-100%) | 5 (5=80-100%) | 5 (5=80-100%) | – | 5 (5=80-100%) | 5 (5=80-100%) | 5 (5=80-100%) | 5 (5=80-100%) | –
CON1CCC2(CC1)CC(=O)C(c1c(C)cc(-c3ccc(C#N)cn3)cc1C)C(=O)C2 [Compound A3] | 5 (5=80-100%) | 5 (5=80-100%) | 5 (5=80-100%) | 5 (5=80-100%) | 5 (5=80-100%) | 5 (5=80-100%) | 5 (5=80-100%) | 5 (5=80-100%) | 5 (5=80-100%) | 5 (5=80-100%)
CC(=O)N1CCC2(CC1)CC(=O)C(c1c(C)cc(-n3cc(Cl)cn3)cc1C)C(=O)C2 [Compound A19] | 5 (5=80-100%) | 4 (4=60-79%) | 4 (4=60-79%) | 1 (1=0-19%) | 2 (2=20-39%) | 5 (5=80-100%) | 3 (3=40-59%) | 5 (5=80-100%) | 5 (5=80-100%) | 5 (5=80-100%)
COc1cc(-c2ccc(F)cc2)cc(C)c1C1C(=O)CC2(CCN(C(=O)C(C)(C)C)CC2)CC1=O [Compound A72] | 5 (5=80-100%) | 5 (5=80-100%) | 5 (5=80-100%) | 5 (5=80-100%) | – | 5 (5=80-100%) | 5 (5=80-100%) | 5 (5=80-100%) | 1 (1=0-19%) | –
Cc1cc(-c2ccc(F)cc2)cc(C)c1C1C(=O)CC2(CCN(C(=O)NC(=O)c3ccccn3)CC2)CC1=O [Compound A62] | 2 (2=20-39%) | 2 (2=20-39%) | 3 (3=40-59%) | 1 (1=0-19%) | – | 5 (5=80-100%) | 3 (3=40-59%) | 5 (5=80-100%) | 2 (2=20-39%) | –
COc1cc(-c2ccc(F)cc2)cc(C)c1C1C(=O)CC2(CCN(C(=O)c3ccccn3)CC2)CC1=O [Compound A66] | 5 (5=80-100%) | 5 (5=80-100%) | 5 (5=80-100%) | 5 (5=80-100%) | – | 5 (5=80-100%) | 5 (5=80-100%) | 5 (5=80-100%) | 5 (5=80-100%) | –
Cc1cc(-c2ccc(F)cc2)cc(C)c1C1C(=O)CC2(CCN(C(=O)NC(C)(C)C)CC2)CC1=O [Compound A57] | 5 (5=80-100%) | 5 (5=80-100%) | 5 (5=80-100%) | 5 (5=80-100%) | – | 5 (5=80-100%) | 5 (5=80-100%) | 4 (4=60-79%) | 1 (1=0-19%) | –
CCS(=O)(=O)N1CCC2(CC1)CC(=O)C(c1c(C)cc(-c3ccc(F)cc3)cc1OC)C(=O)C2 [Compound A64] | 5 (5=80-100%) | 5 (5=80-100%) | 5 (5=80-100%) | 5 (5=80-100%) | – | 5 (5=80-100%) | 5 (5=80-100%) | 5 (5=80-100%) | 5 (5=80-100%) | –
COc1cc(-c2ccc(F)cc2)cc(C)c1C1C(=O)CC2(CCN(C(=O)C(F)F)CC2)CC1=O [Compound A71] | 5 (5=80-100%) | 5 (5=80-100%) | 5 (5=80-100%) | 5 (5=80-100%) | – | 5 (5=80-100%) | 5 (5=80-100%) | 5 (5=80-100%) | 5 (5=80-100%) | –
